The target of the experiment is Mitogen-activated protein kinase 1 (Homo sapiens, UniProt P28482). Description: Kinase Assay (New). The note with it: pH 7.5. As to the method:
Compound dilution series are prepared in 100% DMSO. ERK2 is preincubated with compounds for 30 minutes at ambient temperature. Reaction is initiated by addition of a substrate cocktail of ERKtide peptide and ATP and is allowed to proceed for 2-3 hours at ambient temperature. […] Terminated reactions are read, after overnight incubation in the dark, on an EnVision Multilabel Plate Reader (PerkinElmer, Waltham, Mass.), with excitation and emission wavelengths set to 680 nm and 570 nm, respectively. IC50 values are determined using a four-parameter fit.

The structures appear in SMILES notation. pIC50: −log10 of the molar value.

Chain of Mitogen-activated protein kinase 1 (P28482 whole entry): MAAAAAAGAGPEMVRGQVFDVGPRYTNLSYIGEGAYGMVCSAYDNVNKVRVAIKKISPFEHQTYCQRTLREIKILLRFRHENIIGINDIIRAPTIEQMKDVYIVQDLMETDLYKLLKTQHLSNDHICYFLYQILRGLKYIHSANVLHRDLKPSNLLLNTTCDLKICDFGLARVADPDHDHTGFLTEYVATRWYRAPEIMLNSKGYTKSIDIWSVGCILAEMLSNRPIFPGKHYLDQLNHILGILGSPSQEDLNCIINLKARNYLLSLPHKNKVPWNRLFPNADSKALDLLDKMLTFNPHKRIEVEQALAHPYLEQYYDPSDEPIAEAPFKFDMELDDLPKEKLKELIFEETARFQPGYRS

A word on the pIC50: it is −log10 of the IC50, conventionally taken in molar units. In turn, `Cc1nn(C)cc1-c1cnc(N)c(-c2ccc(C(=O)NCc3cccc(S(C)(=O)=O)c3)c(F)c2)n1` [US9242996, 145] gave a negative-log IC50 (pIC50) of 8.13.
